Ki data for 15 compounds are collected here from patent publication US6579881B2 (Eisai Co., Ltd., priority 1997, dated 2003).

Bounds are passed on as bounds.

In one assay the target is serotonin 2 receptor (Rattus norvegicus, UniProt P14842). As to the kind of experiment: Binding test on [3H] ketanserin (serotonin 2 receptor). The conditions noted are these: [3H] ketanserin 0.3 nM, receptor fraction of rat cerebral cortex; read-out: 5HT2.
For another assay, the target named is T1, serotonin 1A receptor (Rattus norvegicus, UniProt P19327).
T1 construct: To the receptor fraction of the hippocampus were added a test compound and 0.5 nM of [^3H]; 8-hydroxy-dipropylaminotetralin; from tissue; host or cells: SD rat hippocampus, membrane (receptor) fraction
T1 sequence (P19327 1-422): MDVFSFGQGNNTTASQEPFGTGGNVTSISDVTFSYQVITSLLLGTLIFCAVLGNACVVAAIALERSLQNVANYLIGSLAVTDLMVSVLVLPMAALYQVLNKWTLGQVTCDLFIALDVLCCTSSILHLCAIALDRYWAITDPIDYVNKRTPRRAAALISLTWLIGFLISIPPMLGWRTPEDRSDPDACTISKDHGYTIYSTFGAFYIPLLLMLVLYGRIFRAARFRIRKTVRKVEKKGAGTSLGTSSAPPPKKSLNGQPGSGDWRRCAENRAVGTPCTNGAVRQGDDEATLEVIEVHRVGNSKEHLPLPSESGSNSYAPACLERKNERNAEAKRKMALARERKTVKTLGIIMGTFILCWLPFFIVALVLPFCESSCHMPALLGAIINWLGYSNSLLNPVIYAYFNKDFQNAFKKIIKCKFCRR
As to the kind of experiment: Binding test on [3H] 8-hydroxy-dipropylaminotetralin (serotonin 1A receptor). The conditions noted are these: [3H] 8-OH-DPAT 0.5 nM, receptor fraction of rat hippocampus; read-out: 5HT1a.

serotonin 2 receptor, sequence (P14842 whole entry): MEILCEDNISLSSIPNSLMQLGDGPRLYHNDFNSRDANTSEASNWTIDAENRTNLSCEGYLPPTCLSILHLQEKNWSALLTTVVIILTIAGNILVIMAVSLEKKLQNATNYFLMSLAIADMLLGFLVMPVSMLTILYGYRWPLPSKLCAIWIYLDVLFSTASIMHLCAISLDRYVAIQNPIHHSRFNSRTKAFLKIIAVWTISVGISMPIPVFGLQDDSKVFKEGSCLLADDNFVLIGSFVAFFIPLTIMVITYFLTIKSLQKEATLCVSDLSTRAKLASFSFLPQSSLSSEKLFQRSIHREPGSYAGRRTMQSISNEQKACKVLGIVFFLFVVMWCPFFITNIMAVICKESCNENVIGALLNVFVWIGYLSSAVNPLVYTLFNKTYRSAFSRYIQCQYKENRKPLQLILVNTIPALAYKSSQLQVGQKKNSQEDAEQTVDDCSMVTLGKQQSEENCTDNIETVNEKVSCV

As to `CCNc1ccc2c(c1)N(C1CCN(CCc3ccc(F)cc3)CC1)CC2` [Example 112, 1-[1-(4-fluorophenethyl)piperidin-4-yl]-6-ethylaminoindoline], the Ki on serotonin 2 receptor came out at 165 nM; on serotonin 1A receptor, 3.2 nM.
For `CC(C)Nc1ccc2c(c1)N(C1CCN(CCc3ccc(F)cc3)CC1)CC2` [Example 113, 1-[1-(4-fluorophenethyl)piperidin-4-yl]-6-isopropylaminoindoline], in that order: above 200 nM and 13.7 nM.
Consider `CN(C)c1ccc2c(c1)N(C1CCN(CCc3ccc(F)cc3)CC1)CC2` [Example 114, 1-[1-(4-fluorophenethyl)piperidin-4-yl]-6-dimethylaminoindoline], for which the Ki is 23.2 nM on serotonin 2 receptor and 5.8 nM at serotonin 1A receptor.
In the same order, the values of `CS(=O)(=O)Nc1ccc2c(c1)N(C1CCN(CCc3ccc(F)cc3)CC1)CC2` [Example 116, 1-[1-(4-fluorophenethyl)piperidin-4-yl]-6-methanesulfonylaminoindoline] are 14.3 nM and 0.5 nM.
In the case of `CCS(=O)(=O)Nc1ccc2c(c1)N(C1CCN(CCc3ccc(F)cc3)CC1)CC2` [Example 117, 1-[1-(4-fluorophenethyl)piperidin-4-yl]-6-ethanesulfonylaminoindoline], the Ki at serotonin 2 receptor was 10.7 nM; at serotonin 1A receptor, 0.6 nM.
For `CCCS(=O)(=O)Nc1ccc2c(c1)N(C1CCN(CCc3ccc(F)cc3)CC1)CC2` [Example 118, 1-[1-(4-fluorophenethyl)piperidin-4-yl]-6-propanesulfonylaminoindoline], in that order: 10.4 nM and 0.7 nM.
For `O=S(=O)(Nc1ccc2c(c1)N(C1CCN(CCc3ccc(F)cc3)CC1)CC2)c1ccc(F)cc1` [Example 119, 1-[1-(4-fluorophenethyl)piperidin-4-yl]-6-(4-fluorobenzenesulfonylamino)indoline], in that order: 45.5 nM and 0.2 nM.
On to `CN(c1ccc2c(c1)N(C1CCN(CCc3ccc(F)cc3)CC1)CC2)S(C)(=O)=O` [Example 120], for which the Ki at serotonin 2 receptor came out at 11.2 nM; on serotonin 1A receptor, 1 nM.
For `CS(=O)(=O)Oc1ccc2c(c1)N(C1CCN(CCc3ccc(F)cc3)CC1)CC2` [Example 122, 1-[1-(4-fluorophenethyl)piperidin-4-yl]-6-methanesulfonyloxyindoline], in that order: 15.2 nM and 0.2 nM.
In the case of `OCCOc1cccc2c1N(C1CCN(CCc3ccc(F)cc3)CC1)CC2` [Example 123, 1-[1-(4-fluorophenethyl)piperidin-4-yl]-7-hydroxyethoxyindoline], the Ki at serotonin 2 receptor turned out to be 2.7 nM; on serotonin 1A receptor it was 251 nM.
In the same order, the values of `N#Cc1ccc2c(c1)N(C1CCN(CCc3ccc(F)cc3)CC1)CC2` [Example 124, 1-[1-(4-fluorophenethyl)piperidin-4-yl]-6-cyanoindoline] are 45.8 nM and 1.1 nM.
For `O=C(c1ccc2c(c1)N(C1CCN(CCc3ccc(F)cc3)CC1)CC2)n1cccc1` [Example 126, 1-[1-(4-fluorophenethyl)piperidin-4-yl]-6-(1-pyrrolylcarbonyl)indoline], in that order: 129 nM and 1.23 nM.
Consider `CC(=O)c1ccc2c(c1)N(C1CCN(CCc3ccc(F)cc3)CC1)CC2` [Example 127, 1-[1-(4-fluorophenethyl)piperidin-4-yl]-6-acetylindoline], for which the figures for the Ki at serotonin 2 receptor and on serotonin 1A receptor were 5.08 nM and 0.21 nM, respectively.
Consider `CS(=O)(=O)c1ccc2c(c1)N(C1CCN(CCc3ccc(F)cc3)CC1)CC2` [Example 128, 1-[1-(4-fluorophenethyl)piperidin-4-yl]-6-methanesulfonylindoline], for which the results for the Ki at serotonin 2 receptor and on serotonin 1A receptor were 4.7 nM and 0.34 nM, respectively.
Turning to `NC(=S)Cc1ccc2c(c1)N(C1CCN(CCc3ccc(F)cc3)CC1)CC2` [Example 129, 1-[1-(4-fluorophenethyl)piperidin-4-yl]-6-thiocarbamoylmethylindoline], the Ki at serotonin 2 receptor turned out to be 0.65 nM; at serotonin 1A receptor, 0.95 nM.
